Test: in vitro
Conditions: human, hela cells, % viability
In the case of Cc1nn2c(-c3ccc(NC(=O)c4cccs4)cc3)nnc2c2ccccc12 [CBK267134], the viability at 28.5 h, 10 µM is reported as 89.6%. CCn1c2ccccc2n2c(SCCC(=O)O)nnc12 [CBK267135] gave a viability at 28.5 h, 10 µM of 102%. With O=C(CN(c1ccccc1)S(=O)(=O)c1ccccc1[N+](=O)[O-])Nc1ccc(C(F)(F)F)cc1 [CBK267137] the viability at 28.5 h, 10 µM was 64.6%. Cc1cc(=O)oc2cc(NC(=S)NNC(=O)c3ccc4c(c3)c(C)c(C)n4Cc3ccccc3)ccc12 [CBK267138] gave a viability at 28.5 h, 10 µM of 89.6%. In the case of CCOc1ccccc1NC(=O)Nc1ncccc1C [CBK267140], the viability at 28.5 h, 10 µM is reported as 85.3%. O=C(O)CC(NCc1ccccc1)C(=O)Nc1ccc(Cl)cc1 (centres unmarked) [CBK267141] gave a viability at 28.5 h, 10 µM of 95.4%. For CC(C)(O)C#Cc1ccc(C(=O)NCCCNC(=O)c2ccc(C#CC(C)(C)O)s2)s1 [CBK267142], the viability at 28.5 h, 10 µM was 93.8%. For CCn1c(COc2cccc(C)c2)nnc1SCC(=O)c1ccccc1 [CBK267143], the viability at 28.5 h, 10 µM was 97.4%. In the case of CSc1nnc(Cc2nnc(SC)n2-c2ccccc2)n1-c1ccccc1 [CBK267145], the viability at 28.5 h, 10 µM is reported as 105%. Cc1cccnc1Nc1nc(-c2sc(N)nc2C)cs1 [CBK267147] gave a viability at 28.5 h, 10 µM of 90.3%. Compound CCn1c(SCC(=O)NC2CCCCC2C)nnc1-c1cc2cccc(OC)c2o1 (centres unmarked) [CBK267148] has a viability at 28.5 h, 10 µM of 89.5%. For O=C(Nc1ccccc1Cl)c1ccc(NCCN2C(=O)c3ccccc3C2=O)c([N+](=O)[O-])c1 [CBK267149], the viability at 28.5 h, 10 µM was 95.8%. In the case of Cc1cc(Br)cc(C)c1OCC(=O)NNC(=O)Cc1cccc2ccccc12 [CBK267151], the viability at 28.5 h, 10 µM is reported as 95.2%. In the case of CCn1c(S)nnc1CNC(=O)c1ccc(Cl)cc1Cl [CBK267152], the viability at 28.5 h, 10 µM is reported as 94.3%. Work on Cc1cccc(OCc2nnc(SCC(=O)Nc3cccc4ccccc34)o2)c1C [CBK267153] yielded a viability at 28.5 h, 10 µM of 108%. COc1c(C)cc(Br)cc1C(=O)Nc1ccccc1-c1nc2ccccc2s1 [CBK267155] showed a viability at 28.5 h, 10 µM of 99.8%. Work on Cc1cccc(C)c1NC(=O)CCC(=O)OCc1ccccc1 [CBK267158] yielded a viability at 28.5 h, 10 µM of 102%. Work on Cc1ccc(NC(=O)c2cc([N+](=O)[O-])ccc2NCCN2C(=O)c3ccccc3C2=O)cc1 [CBK267159] yielded a viability at 28.5 h, 10 µM of 87.5%. Work on COc1ccc(S(=O)(=O)N2CCC(C(=O)O)CC2)cc1Cl [CBK267162] yielded a viability at 28.5 h, 10 µM of 94.9%. With O=C(CC1NC(=O)NC1=O)Nc1cccc2ccccc12 (centres unmarked) [CBK267164] the viability at 28.5 h, 10 µM was 90.3%. With NC(=O)C1(N2CCCCC2)CCN(C(=S)Nc2ccc(F)c(Cl)c2)CC1 [CBK267165] the viability at 28.5 h, 10 µM was 97.4%. In the case of COc1cc(/C=C/c2nc(O)c([N+](=O)[O-])c(=O)[nH]2)ccc1OCC(=O)N1CCOCC1 [CBK267168], the viability at 28.5 h, 10 µM is reported as 96.8%. For COc1ccc(Nc2nc(-c3sc(C)nc3C)cs2)c(OC)c1 [CBK267170], the viability at 28.5 h, 10 µM was 46.5%. Work on Nc1ccc(-c2nnc(SCC(=O)Nc3ccc(Br)cc3F)n2-c2ccccc2)cc1 [CBK267175] yielded a viability at 28.5 h, 10 µM of 98.8%. COc1ccc(S(=O)(=O)N(C)CC(=O)O)cc1C [CBK267176] showed a viability at 28.5 h, 10 µM of 108%. O=c1oc2cc(S(=O)(=O)NCc3ccco3)ccc2c2ccc(S(=O)(=O)NCc3ccco3)cc12 [CBK267177] gave a viability at 28.5 h, 10 µM of 96.5%. O=C(CNS(=O)(=O)c1cccc(Cl)c1)Nc1ccc(-c2nc3ccccc3s2)cc1 [CBK267178] showed a viability at 28.5 h, 10 µM of 97.5%. Compound CCCOc1ccccc1-c1nnc(SCCC(=O)O)[nH]1 [CBK267182] has a viability at 28.5 h, 10 µM of 93.9%. COC(=O)c1sccc1NC(=O)Cn1nnc(-c2ccc(C)cc2)n1 [CBK267183] gave a viability at 28.5 h, 10 µM of 98.4%. c1ccc(-c2csc(Nc3cccnc3)n2)nc1 [CBK267184] showed a viability at 28.5 h, 10 µM of 107%. Compound O=C(CSc1nnc(COc2ccccc2)o1)N1CCN(c2ccccc2)CC1 [CBK267185] has a viability at 28.5 h, 10 µM of 97.5%. For Nc1ncnc(NNC(=O)CNC(=O)c2ccccc2C(F)(F)F)c1[N+](=O)[O-] [CBK267186], the viability at 28.5 h, 10 µM was 94.1%. For COC(=O)c1ccc(N2C(=O)CC(SCCc3nc4ccccc4[nH]3)C2=O)cc1 (centres unmarked) [CBK267188], the viability at 28.5 h, 10 µM was 88.5%. For Cc1ccc2oc3c(c(=O)c2c1)C(c1ccc(OCC(N)=O)cc1)N(Cc1ccc2c(c1)OCO2)C3=O (centres unmarked) [CBK267189], the viability at 28.5 h, 10 µM was 91.3%. Work on O=C(CN1CCNCC1)Nc1ccc(Oc2ccccc2)cc1 [CBK267191C] yielded a viability at 28.5 h, 10 µM of 102%. COc1ccc(Cl)cc1NC(=S)NCCc1ccc(S(N)(=O)=O)cc1 [CBK267198] gave a viability at 28.5 h, 10 µM of 85.6%. Work on Nc1c(C(=O)NCc2ccccc2)c2nc3ccccc3nc2n1CCO [CBK267201] yielded a viability at 28.5 h, 10 µM of 108%. CCOc1ccccc1-n1c(CN2CCN(C(=O)c3ccco3)CC2)nc2ccccc2c1=O [CBK267203] gave a viability at 28.5 h, 10 µM of 86.4%. In the case of Cc1cccc(OCc2nnc(SCC(=O)Nc3cc(C(F)(F)F)ccc3Cl)o2)c1C [CBK267204], the viability at 28.5 h, 10 µM is reported as 85.3%. Compound CC1(C)Cc2nc(-c3ccccc3)nc(SCC(=O)NCCc3ccccc3)c2CO1 [CBK267205] has a viability at 28.5 h, 10 µM of 86.7%. O=C(c1ccco1)N1CCN(c2ncnc3scc(-c4cccs4)c23)CC1 [CBK267208] gave a viability at 28.5 h, 10 µM of 110%. With O=C(Nc1ccc(N2CCN(Cc3ccccc3F)CC2)cc1)c1cc2ccccc2o1 [CBK267210] the viability at 28.5 h, 10 µM was 87.4%. O=C(NCC1CCCO1)c1ccc(CNS(=O)(=O)c2cccc(Cl)c2)cc1 (centres unmarked) [CBK267219] gave a viability at 28.5 h, 10 µM of 88.6%. Compound Cc1nn(-c2nc3ccccc3s2)c(O)c1C1OC(=O)c2ccccc21 (centres unmarked) [CBK267220] has a viability at 28.5 h, 10 µM of 95%. In the case of CC(C)c1ccc(OCC(=O)NNC(=O)c2ccco2)c(Br)c1 [CBK267224], the viability at 28.5 h, 10 µM is reported as 86.7%. Compound O=C(c1ccco1)N1CCN(Cc2nc3ccccc3c(=O)n2-c2ccc(F)cc2)CC1 [CBK267226] has a viability at 28.5 h, 10 µM of 94.3%. Work on Cc1nc2ccc(NC(=S)N3CCN(c4ccccn4)CC3)cc2nc1C [CBK267227] yielded a viability at 28.5 h, 10 µM of 67.1%. With CCOc1ccc2nc(SCC(=O)Nc3c(C)n(C)n(-c4ccccc4)c3=O)sc2c1 [CBK267229] the viability at 28.5 h, 10 µM was 95.5%. Cc1ccccc1OCc1nn2c(COc3ccccc3)nnc2s1 [CBK267230] showed a viability at 28.5 h, 10 µM of 85.4%. Work on CCOC(=O)c1c(NC(=O)CSc2nc[nH]n2)sc2c1CCCCC2 [CBK267231] yielded a viability at 28.5 h, 10 µM of 90.8%. Work on COC(=O)c1ccc(NC(=S)N2CCC(C(N)=O)CC2)cc1 [CBK267232] yielded a viability at 28.5 h, 10 µM of 90.2%. C=CCOc1ccccc1CNc1nc[nH]n1 [CBK267234] showed a viability at 28.5 h, 10 µM of 93.7%. Cc1cc(Sc2ncnc(N)c2[N+](=O)[O-])ncn1 [CBK267235] showed a viability at 28.5 h, 10 µM of 36.7%. Work on O=C(Nc1nnn[nH]1)C1(c2ccc([N+](=O)[O-])cc2)CCCC1 [CBK267237] yielded a viability at 28.5 h, 10 µM of 93.7%. O=C(CCc1nc2ccccc2[nH]1)Nc1ccc(F)cc1 [CBK267238] gave a viability at 28.5 h, 10 µM of 95.5%. For O=C(CSc1nnc(-c2ccncc2)n1-c1ccccc1)N1CCN(Cc2ccccc2)CC1 [CBK267240], the viability at 28.5 h, 10 µM was 105%. Work on COc1ccc(CN2CC(C(=O)O)CC2=O)cc1 (centres unmarked) [CBK267242] yielded a viability at 28.5 h, 10 µM of 96.4%. With O=C(NCCCN1CCOCC1)C(=O)NC1CC1 [CBK267243] the viability at 28.5 h, 10 µM was 101%. Fc1cccc(Cl)c1CNc1ccc(CNc2ncn[nH]2)cc1 [CBK267245] gave a viability at 28.5 h, 10 µM of 93.1%. With Cc1ccc(Cl)cc1NC(=O)CC1NCCNC1=O (centres unmarked) [CBK267246] the viability at 28.5 h, 10 µM was 97%. Cc1ccc(-c2nn3c(C)nnc3s2)cc1NC(=O)c1ccc([N+](=O)[O-])o1 [CBK267247] gave a viability at 28.5 h, 10 µM of 95.2%. CC(C)(C)c1ccc(S(=O)(=O)NCc2ccc(C(=O)NCc3ccccn3)cc2)cc1 [CBK267248] showed a viability at 28.5 h, 10 µM of 115%.

From article PMC12040169 (PLOS Biology, 2025)
